Measurements as given in PubChem BioAssay (NCI).
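Step 1: Grow cells in 96-well plates. Step 2: Expose to compound for 48 hours at 5 concentrations. Step 3: Interpolate endpoints linearly; if unreached, use highest concentration. Here, GI50 denotes the concentration required for 50% inhibition of growth. The concentration for full growth arrest is given as TGI.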

How the values were obtained:
Experiment in all cases: inhibition of tumour cell growth, NCI panel, 48 h
OVCAR-5 ovarian = tested on: OVCAR-5 ovarian
KM12 colon = tested on: KM12 colon
MOLT-4 leukemia = tested on: MOLT-4 leukemia
T-47D breast = tested on: T-47D breast
HS 578T breast = tested on: HS 578T breast
RPMI-8226 leukemia = tested on: RPMI-8226 leukemia
M14 melanoma = tested on: M14 melanoma
K-562 leukemia = tested on: K-562 leukemia
EKVX NSCLC = tested on: EKVX NSCLC
COLO 205 colon = tested on: COLO 205 colon
UACC-62 melanoma = tested on: UACC-62 melanoma
HT29 colon = tested on: HT29 colon
HCT-15 colon = tested on: HCT-15 colon
MDA-MB-435 = tested on: MDA-MB-435
SK-MEL-2 melanoma = tested on: SK-MEL-2 melanoma
BT-549 breast = tested on: BT-549 breast
UO-31 renal = tested on: UO-31 renal
TK-10 renal = tested on: TK-10 renal
PC-3 prostate = tested on: PC-3 prostate
ACHN renal = tested on: ACHN renal
SK-OV-3 ovarian = tested on: SK-OV-3 ovarian
SF-295 CNS = tested on: SF-295 CNS
SW-620 colon = tested on: SW-620 colon
NCI-H23 lung = tested on: NCI-H23 lung
U251 CNS = tested on: U251 CNS
NCI/ADR-RES ovarian = tested on: NCI/ADR-RES ovarian
HL-60(TB) leukemia = tested on: HL-60(TB) leukemia
SR leukemia = tested on: SR leukemia
SN12C renal = tested on: SN12C renal

In the case of `Cc1cc(NC(=O)NCCCOc2ccc(N3C(N)=NC(N)=NC3(C)C)cc2Cl)ccc1S(=O)(=O)F`, the GI50 (OVCAR-5 ovarian) is reported as 0.883 µM, the TGI (OVCAR-5 ovarian) is reported as > 100 µM and the GI50 (KM12 colon) is reported as 0.631 µM. For the same compound, the TGI (KM12 colon) was 17 µM, the GI50 (MOLT-4 leukemia) was 1.14 µM and the TGI (MOLT-4 leukemia) was > 96.1 µM. It also gave a GI50 (T-47D breast) of 4.82 µM, a TGI (T-47D breast) of 61.9 µM and a GI50 (HS 578T breast) of 2.77 µM. For the same compound, the TGI (HS 578T breast) was 35 µM, the GI50 (RPMI-8226 leukemia) was 5.78 µM and the TGI (RPMI-8226 leukemia) was > 100 µM. For the same compound, the GI50 (M14 melanoma) was 2.42 µM, the TGI (M14 melanoma) was > 100 µM and the GI50 (K-562 leukemia) was 0.318 µM. For the same compound, the TGI (K-562 leukemia) was > 100 µM, the GI50 (EKVX NSCLC) was 1.32 µM and the TGI (EKVX NSCLC) was > 100 µM. It also gave a GI50 (COLO 205 colon) of 1.17 µM, a TGI (COLO 205 colon) of 17.5 µM and a GI50 (UACC-62 melanoma) of 0.608 µM. The TGI (UACC-62 melanoma) was 24.9 µM, the GI50 (HT29 colon) was 0.333 µM and the TGI (HT29 colon) was 53.9 µM. The GI50 (HCT-15 colon) was 39.2 µM, the TGI (HCT-15 colon) was > 100 µM and the GI50 (MDA-MB-435) was 0.577 µM. It also gave a TGI (MDA-MB-435) of 33.2 µM, a GI50 (SK-MEL-2 melanoma) of 2.43 µM and a TGI (SK-MEL-2 melanoma) of 65.9 µM. For the same compound, the GI50 (BT-549 breast) was 4.85 µM, the TGI (BT-549 breast) was 21.7 µM and the GI50 (UO-31 renal) was > 82.4 µM. For the same compound, the TGI (UO-31 renal) was > 100 µM, the GI50 (TK-10 renal) was 3.11 µM and the TGI (TK-10 renal) was > 100 µM. It also gave a GI50 (PC-3 prostate) of 0.376 µM, a TGI (PC-3 prostate) of 44 µM and a GI50 (ACHN renal) of 11.3 µM. For the same compound, the TGI (ACHN renal) was > 100 µM, the GI50 (SK-OV-3 ovarian) was 9.72 µM and the TGI (SK-OV-3 ovarian) was > 82.3 µM. The GI50 (SF-295 CNS) was 3.26 µM, the TGI (SF-295 CNS) was > 100 µM and the GI50 (SW-620 colon) was 0.373 µM. For the same compound, the TGI (SW-620 colon) was > 100 µM, the GI50 (NCI-H23 lung) was 0.951 µM and the TGI (NCI-H23 lung) was > 66.8 µM. The GI50 (U251 CNS) was 0.492 µM, the TGI (U251 CNS) was 19.7 µM and the GI50 (NCI/ADR-RES ovarian) was > 100 µM. The TGI (NCI/ADR-RES ovarian) was > 100 µM, the GI50 (HL-60(TB) leukemia) was 0.647 µM and the TGI (HL-60(TB) leukemia) was 28.9 µM. For the same compound, the GI50 (SR leukemia) was 0.369 µM, the TGI (SR leukemia) was > 46.2 µM and the GI50 (SN12C renal) was 0.558 µM. The TGI (SN12C renal) was > 100 µM.
